Paper PMC6389993, “Quercetin and its metabolite isorhamnetin promote glucose uptake through different signalling pathways in myotubes” (Scientific Reports, 2019)
Read-outs that look alike come from different tables or passages of the source.

Tests used:
IR = assay: Phosphorylation of insulin receptor in L6 myotubes (immunoprecipitation, western blot); format: cell-based, rat; conditions: 0.1–10 nM, 15 min, all concentrations tested
Procedure: (§1) For in vitro cell culture experiments, after serum starvation for 18 h, myotubes were treated with various concentrations of quercetin or isorhamnetin (0.1–10 nM) for 15 min; DMSO (final 0.1%) was used as a vehicle control. As positive controls, 100 nM insulin, 1 mM AICAR, 10 nM leptin, or 100 ng/mL IL-15 were used for insulin, AMPK, JAK2/STAT, or JAK3/STAT signalling pathways, respectively. Cells were treated with insulin or AICAR for 15 min, leptin for 60 min, or IL-15 for 24 h. Whole protein and plasma membrane fractions were prepared from myotubes, as previously described. For in vivo experiment, plasma membrane fraction and tissue lysate of soleus muscle were prepared.
Translocation of GLUT4 to the plasma membrane, as well as expression and phosphorylation levels of GLUT4-related regulators were estimated by western blot analysis. Briefly, equal amounts of proteins were separated by sodium dodecyl sulfate-polyacrylamide gel electrophoresis (SDS-PAGE). […] Specific immune complexes were developed using ImmunoStar® LD and detected with an ATTO Light-Capture II Western Blotting Detection System. Individual band density was calculated by ImageJ and normalized to the control. […]

GLUT4 = GLUT4 translocation to the plasma membrane in L6 myotubes (western blot); format: cell-based, rat; conditions: for GLUT4 translocation to the plasma membrane / expression level of GLUT4: 15 min; for expression level of GLUT4: 0.1–10 nM
Procedure: In vitro cultured cell experiments were conducted according to a previously described protocol[6],[14]. Briefly, L6 myoblasts derived from rat skeletal muscle and of less than 40 passages were maintained in MEM supplemented with 10% foetal bovine serum (FBS) and antibiotics (100 U/ml penicillin and 100 μg/ml streptomycin) at 37 °C under a humidified atmosphere condition of 5% CO2 and 95% air. In each experiment, cells (2.2 × 10^4 cells/ml) were seeded into 96-well plates or 60-mm dishes for induction of differentiation into mature myotubes. After reaching confluence, cells were supplemented with differentiation medium containing 2% FBS and the same antibiotics for 7 days. Cells were used for each experiment after morphological analysis of differentiation status using phase-contrast microscopy. To explore the contribution of CaMKKβ or intracellular-free calcium ions in quercetin- and isorhamnetin-stimulated GLUT4 translocation, L6 cells were incubated in the presence or absence of 10 μM STO-609 and 25 μM […], respectively, for 30 min prior to treatment with either quercetin or isorhamnetin.
as §1
Translocation of GLUT4 to the plasma membrane, as well as expression and phosphorylation levels of GLUT4-related regulators were estimated by western blot analysis. Briefly, equal amounts of proteins were separated by sodium dodecyl sulfate-polyacrylamide gel electrophoresis (SDS-PAGE). Separated proteins were transferred onto a polyvinylidene fluoride membrane and nonspecific binding sites were blocked using either Blocking One (to detect unphosphorylated proteins) or Blocking One-P (to detect phosphoproteins). The membrane was incubated overnight with an appropriate primary antibody for GLUT4 (1:5000), IR (1:10000), p-IRS1 (1:5000), IRS1 (1:5000), p-PI3K (1:5000), PI3K (1:10000), p-Akt (1:5000), Akt (1:10000), p-AMPKα (1:5000), AMPKα (1:10000), p-ACC (1:5000), ACC (1:10000), p-LKB1 (1:5000), LKB1 (1:10000), p-JAK2 (1:5000), JAK2 (1:5000), p-JAK3 (1:5000), JAK3 (1:10000), p-STAT1 (1:5000), STAT1 (1:10000), p-STAT3 (1:5000), STAT3 (1:10000), p-STAT5 (1:5000), STAT5 (1:10000), or β-actin (1:20000), and subsequently treated with the corresponding horseradish peroxidase-conjugated secondary antibody (1:50000) for 1 h. Specific immune complexes were developed using ImmunoStar® LD and detected with an ATTO Light-Capture II Western Blotting Detection System. Individual band density was calculated by ImageJ and normalized to the control.

LKB1 = assay: Phosphorylation of LKB1 in L6 myotubes (western blot); format: cell-based, rat; conditions: 0.1–10 nM, 15 min
Procedure: as §1
(§2) Translocation of GLUT4 to the plasma membrane, as well as expression and phosphorylation levels of GLUT4-related regulators were estimated by western blot analysis. Briefly, equal amounts of proteins were separated by sodium dodecyl sulfate-polyacrylamide gel electrophoresis (SDS-PAGE). […] Specific immune complexes were developed using ImmunoStar® LD and detected with an ATTO Light-Capture II Western Blotting Detection System. Individual band density was calculated by ImageJ and normalized to the control.

[1] = Plasma concentrations of quercetin and isorhamnetin in mice after oral EMIQ (HPLC); format: in vivo; conditions: male, ICR, mouse, HPLC without deconjugation, read-out: Concentration in plasma, Aglycone form
Procedure: All animal experiments were performed according to the guidelines for animal experiments at Kobe University Animal Experimentation Regulation and approved by the Institutional Animal Care and Use Committed of Kobe University (Permission 29-05-02). Male ICR mice (5 weeks old, n = 20) were obtained from Japan SLC (Shizuoka, Japan) and maintained at constant temperature (23 ± 2 °C) with a 12 h light-dark cycle (lights on at 8:00 am). Mice were subsequently randomly divided into four groups of five each, and acclimatized for 1 week with free access to tap water and a laboratory-purified diet (3.850 kcal/g diet) consisting of 76% carbohydrate, 15% protein and 9% fat) (Research Diets, Tokyo, Japan). For analysis of concentrations of quercetin and isorhamnetin in the plasma and GLUT4 translocation in the muscle, mice were orally administrated EMIQ at 10, 100, or 1000 mg/kg body weight, or water as a vehicle control after 18 h fasting. The mice were sacrificed 90 min after the administration under anesthesia using sodium pentobarbital and seroflurane, and euthanized by exsanguination from cardiac puncture. Plasma and soleus muscle were collected, and kept at -80 °C until use.
To determine the levels of quercetin and isorhamnetin after administration of EMIQ, the obtained plasma were analyzed using HPLC (UV 370 nm) with or without deconjugation treatment using glucuronidase/sulfatase[16]. Briefly, an aliquot of 250 μl of plasma was mixed with 50 μl of 20% (w/v) ascorbic acid and incubated with 125 μl of 75 mM potassium phosphate buffer (pH 6.8) with or without 500 U/sample β-glucronidase and 125 μl of 200 mM sodium acetate buffer (pH 5.0) with or without 10 U/sample sulfatase for 2 h at 37 °C after adding 2 μl of 1 mM nobiletin as an internal standard. To separate quercetin and isorhamnetin, mixture was applied on a Sep-Pak C18 1 cc Vac Cartridge and eluted with 2 ml 95% (v/v) methanol. After eluate was dried by evaporation, dried material was dissolved in 50 μl of 50% (v/v) methanol and applied to HPLC. HPLC was performed using a SHIMADZU LabSolutions system (SHIMADZU, Kyoto, Japan) with SPD-M20A diode array detector. HPLC separation was done with a gradient system using 0.02% aqueous phosphoric acid as mobile phase A and acetonitrile as mobile phase B with a Cadenza CL-C18 column (φ 4.6 mm × 250 mm, Kyoto, Japan) at a flow rate of 1.0 ml/min. The gradient program was 0–13 min, 20% B, 13–33 min, 50–80% B, 33–43 min, 100% B, 43–60 min, 20% B.

PI3K = assay: Phosphorylation of PI3K in L6 myotubes (western blot); format: cell-based, rat; conditions: 15 min
Procedure: as §1, §2

Row | SMILES | phosphorylation of insulin receptors (IRs) (IR) | GLUT4 translocation to the plasma membrane (GLUT4; 0.1 nM) | GLUT4 translocation to the plasma membrane (GLUT4; 1 nM) | time-dependent changes in GLUT4 translocation (GLUT4; 1 nM, monitored 0–240 min) | GLUT4 translocation to the plasma membrane (GLUT4; 10 nM) | expression level of GLUT4 (GLUT4) | LKB1 phosphorylation (LKB1) | concentration at 90 min ([1]; plasma, oral, 90 min after oral EMIQ 10 mg/kg body weight) [nM] | concentration at 90 min ([1]; plasma, oral, 90 min after oral EMIQ 100 mg/kg body weight) [nM] | concentration at 90 min ([1]; plasma, oral, 90 min after oral EMIQ 1000 mg/kg body weight) [nM] | phosphorylation of PI3K (PI3K; 0.1–10 nM) | concentration at 90 min ([1]; in vivo, 90 min after oral EMIQ 1000 mg/kg body weight) [nM] | phosphorylation of PI3K (PI3K; 0.1 nM)
1 | O=c1c(O)c(-c2ccc(O)c(O)c2)oc2cc(O)cc(O)c12 [quercetin, 3,3′,4′,5,7-pentahydroxy flavone] | failed to activate | significantly increased GLUT4 translocation | significantly increased GLUT4 translocation | bell-shaped curve | significantly increased GLUT4 translocation | remained unchanged | neither quercetin nor isorhamnetin increased LKB1 phosphorylation | 4.95 ± 0.82 | 6.8 ± 2 | 138 ± 45.1 | significantly increased phosphorylation of PI3K | – | –
2 | COc1cc(-c2oc3cc(O)cc(O)c3c(=O)c2O)ccc1O [isorhamnetin, 3′-O-methyl quercetin] | failed to activate | – | significantly increased GLUT4 translocation | – | significantly increased GLUT4 translocation | remained unchanged | neither quercetin nor isorhamnetin increased LKB1 phosphorylation | – | – | – | – | 131 ± 51.5 | increased PI3K phosphorylation
